# Where two headings read alike, the source gives them in different places.
# Columns and labels:
# in vitro = details: hamster, Cytotoxicity (CC50)
# FMDV = assay: organism not typed; type: cell-based, Foot-and-mouth-disease virus serotype A (NP05)
# FMDV 3C^pro = FMDV 3C^pro (Foot-and-mouth disease virus, UniProt P03306); assay: cell-based
# [1] = BHK-21, 0 h, read-out: Viral (EC50)
# [2] = BHK-21, 2 h, read-out: Post-Viral (EC50)
# [3] = BHK-21, read-out: Prophylaxis (EC50)
# [4] = read-out: EC50 (low antiviral activities)
# FMDV 3C^pro, sequence (P03306 1650-1862 limits assumed): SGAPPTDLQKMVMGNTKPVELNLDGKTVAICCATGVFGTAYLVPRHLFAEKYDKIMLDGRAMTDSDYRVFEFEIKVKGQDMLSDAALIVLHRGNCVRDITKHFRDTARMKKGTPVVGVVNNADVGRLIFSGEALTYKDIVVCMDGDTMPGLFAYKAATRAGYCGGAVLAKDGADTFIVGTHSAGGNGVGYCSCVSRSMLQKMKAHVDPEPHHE
compound,measurement,setting,value
"O=C(COc1cc(O)c2c(=O)cc(-c3ccccc3)oc2c1)c1ccc(F)cc1 [Kaempferol derivative, 7-[2-(4-Fluorophenyl)-2-oxoethoxy]-5-hydroxy-2-phenyl-4H-chromen-4-one]",CC50,in vitro,> 100 µM
"NC(=O)c1ncn([C@@H]2O[C@H](CO)[C@@H](O)[C@H]2O)n1 [Ribavirin, reference compound]",EC50,FMDV; [1],41.8 ± 1.58 µM
same,EC50,FMDV; [2],133 ± 2.03 µM
same,EC50,FMDV; [3],283.9 ± 2.3 µM
same,CC50,in vitro,> 100 µM
Epicatechin-3-gallate,CC50,BHK-21 cells,77 ± 8.85 µM
COc1ccc([C@@H]2CC(=O)c3c(O)cc(O[C@@H]4O[C@H](CO[C@@H]5O[C@@H](C)[C@H](O)[C@@H](O)[C@H]5O)[C@@H](O)[C@H](O)[C@H]4O)cc3O2)cc1O [Hesperidin],CC50,BHK-21 cells,> 100 µM
O=C(/C=C/c1ccc(O)c2c1[C@H](C(=O)O)[C@@H](c1ccc(O)c(O)c1)O2)O[C@H](Cc1ccc(O)c(O)c1)C(=O)O [Lithospermic acid],CC50,in vitro,> 100 µM
O=c1cc(-c2ccc(O)cc2)oc2cc(O)cc(O)c12 [Apigenin],EC50,FMDV; [1],75 to 100 µM
same,EC50,FMDV; [2],75 to 100 µM
same,EC50,FMDV; [3],> 100 µM
same,EC50,FMDV; [4],75 to 100 µM
same,IC50,FMDV 3C^pro,> 200 µM
same,CC50,in vitro,68.7 ± 4.1 µM
"Methyl Hesperidin,(S)",CC50,BHK-21 cells,> 100 µM
COc1ccc(-c2cc(=O)c3c(O)cc(O)c(-c4cc(-c5cc(=O)c6c(O)cc(O)cc6o5)ccc4OC)c3o2)cc1 [Isoginkgetin],EC50,FMDV; [1],2.01 ± 0.07 µM
same,EC50,FMDV; [2],1.93 ± 0.21 µM
same,EC50,FMDV; [3],6.76 ± 0.8 µM
same,Fold increase of the FLuc over Renilla luciferase (Rluc) ratio,FMDV 3C^pro,2.65 fold
same,IC50,FMDV 3C^pro,39.03 ± 0.05 µM
same,CC50,in vitro,> 100 µM
"CCOC(=O)/C=C/[C@H](C[C@@H]1CCNC1=O)NC(=O)[C@@H](CC(=O)[C@@H](NC(=O)c1cc(C)on1)C(C)C)Cc1ccc(F)cc1 [Rupintrivir, reference compound]",EC50,FMDV; [1],1.99 ± 0.01 µM
same,EC50,FMDV; [2],1.69 ± 0.19 µM
same,EC50,FMDV; [3],11.8 ± 1.03 µM
same,Fold increase of the FLuc over Renilla luciferase (Rluc) ratio,FMDV 3C^pro,4.27 fold
same,IC50,FMDV 3C^pro,13.5 ± 0.19 µM
same,CC50,in vitro,> 100 µM
O=C(O)[C@H]1O[C@@H](Oc2cc3oc(-c4ccccc4)cc(=O)c3c(O)c2O)[C@H](O)[C@@H](O)[C@@H]1O [Baicalin],CC50,in vitro,> 100 µM
O=c1cc(-c2ccccc2)oc2cc(O[C@@H]3O[C@H](CO[C@@H]4O[C@H](CO)[C@@H](O)[C@H](O)[C@H]4O)[C@@H](O)[C@H](O)[C@H]3O)c(O)c(O)c12 [Oroxin B],CC50,BHK-21 cells,85.9 ± 7.4 µM
COc1cc(O)c2c(=O)cc(-c3ccc(O)c(O)c3)oc2c1 [7-O-Methylluteolin],EC50,FMDV; [1],75 to 100 µM
same,EC50,FMDV; [2],75 to 100 µM
same,EC50,FMDV; [3],> 100 µM
same,EC50,FMDV; [4],75 to 100 µM
same,IC50,FMDV 3C^pro,> 200 µM
same,CC50,in vitro,> 100 µM
O=c1cc(-c2ccc(O)c(O)c2)oc2cc(O)cc(O)c12 [Luteolin],EC50,FMDV; [1],9.73 ± 0.94 µM
same,EC50,FMDV; [2],10 ± 0.98 µM
same,EC50,FMDV; [3],25.8 ± 1.29 µM
same,Fold increase of the FLuc over Renilla luciferase (Rluc) ratio,FMDV 3C^pro,1.86 fold
same,IC50,FMDV 3C^pro,176.7 ± 0.05 µM
same,CC50,in vitro,> 100 µM
C[C@@H]1O[C@@H](Oc2cc(O)c3c(=O)c(O)c(-c4ccc(O)c(O)c4)oc3c2)[C@H](O)[C@H](O)[C@H]1O [Quercetin 7-rhamnoside],CC50,BHK-21 cells,> 100 µM
same,EC50,FMDV; read-out: Post-Viral (EC50),75 to 100 µM
same,EC50,FMDV; read-out: Prophylaxis (EC50),> 100 µM
same,EC50,FMDV; read-out: Viral (EC50),> 100 µM
same,IC50,"FMDV 3C^pro; read-out: IC50, cell-based protease assay",> 200 µM
O=C(/C=C/c1ccc(O)cc1)OC[C@H]1O[C@@H](Oc2c(-c3ccc(O)cc3)oc3cc(O)cc(O)c3c2=O)[C@H](O)[C@@H](O)[C@@H]1O [Tiliroside],CC50,in vitro,> 100 µM
COc1ccc(-c2cc(=O)c3c(O)cc(O[C@@H]4O[C@H](CO[C@@H]5O[C@@H](C)[C@H](O)[C@@H](O)[C@H]5O)[C@@H](O)[C@H](O)[C@H]4O)cc3o2)cc1O [Diosmin],CC50,in vitro,> 100 µM
O=C/C=C/c1ccccc1 [Cinnamaldehyde],CC50,in vitro,> 100 µM
COc1cc(C2Oc3cc([C@H]4Oc5cc(O)cc(O)c5C(=O)[C@@H]4O)ccc3OC2CO)ccc1O (stereo partly drawn) [Flavobin],CC50,in vitro,45.1 µM
O=C(O[C@@H]1Cc2c(O)cc(O)cc2O[C@@H]1c1cc(O)c(O)c(O)c1)c1cc(O)c(O)c(O)c1 [EGCG],CC50,BHK-21 cells,> 100 µM
COc1ccc(-c2cc(=O)c3c(O)cc(O[C@@H]4O[C@H](CO[C@@H]5O[C@@H](C)[C@H](O)[C@@H](O)[C@H]5O)[C@@H](O)[C@H](O)[C@H]4O)cc3o2)cc1 [Linarin],CC50,BHK-21 cells,> 100 µM
Hyperoxide,CC50,BHK-21 cells,> 100 µM
COc1ccc(-c2coc3cc(O[C@@H]4O[C@H](CO)[C@@H](O)[C@H](O)[C@H]4O)ccc3c2=O)cc1O [Calycosin 7-O-glucoside],CC50,BHK-21 cells,> 100 µM
